Assays:
Format in all cases: ADME, organism-based
[1] = Clearance in Homo sapiens (human) at 150 mg; conditions: in vivo
[2] = Volume of distribution in Homo sapiens (human) at 150 mg; conditions: in vivo
[3] = Mean residence time in Homo sapiens (human) at 150 mg; conditions: in vivo
[4] = Elimination half life in Homo sapiens (human) at 150 mg; conditions: in vivo, read-out: beta t1/2 (converted)
[5] = AUC (0 to infinity) in Homo sapiens (human) at 150 mg; set-up: dose 150 mg, time infinity; conditions: plasma
[6] = Tmax in Homo sapiens (human) at 150 mg; conditions: in vivo
[7] = Cmax in Homo sapiens (human) at 150 mg; set-up: dose 150 mg; conditions: in vivo
[8] = Volume of distribution in Macaca mulatta (Rhesus monkey) at 4 mg/kg, iv; set-up: dose 4 mg/kg, route intravenous; conditions: in vivo
[9] = Mean residence time in Macaca mulatta (Rhesus monkey) at 4 mg/kg, iv; set-up: dose 4 mg/kg, route intravenous; conditions: in vivo
Rhesus monkey [10] = assay: Dose normalized AUC in Macaca mulatta (Rhesus monkey) at 4 mg/kg, iv; set-up: dose 4 mg/kg, route intravenous; conditions: in vivo
[11] = Elimination half life in Macaca mulatta (Rhesus monkey) at 4 mg/kg, iv; set-up: dose 4 mg/kg, route intravenous; conditions: in vivo, read-out: beta t1/2 (converted)
Rhesus monkey [12] = assay: Volume of distribution in Macaca mulatta (Rhesus monkey) at 7.5 mg/kg, administered intramuscularly; set-up: dose 7.5 mg/kg, route intramuscular; conditions: in vivo, im
[13] = Mean residence time in Macaca mulatta (Rhesus monkey) at 7.5 mg/kg, administered intramuscularly; set-up: dose 7.5 mg/kg, route intramuscular; conditions: in vivo, im
[14] = Elimination half life in Macaca mulatta (Rhesus monkey) at 7.5 mg/kg, administered intramuscularly; set-up: dose 7.5 mg/kg, route intramuscular; conditions: in vivo, im, read-out: beta t1/2 (converted)
Rhesus monkey [15] = assay: Dose normalized AUC in Macaca mulatta (Rhesus monkey) at 7.5 mg/kg, administered intramuscularly; set-up: dose 7.5 mg/kg, route intramuscular; conditions: in vivo, im
[16] = Tmax in Macaca mulatta (Rhesus monkey) at 7.5 mg/kg, administered intramuscularly; set-up: dose 7.5 mg/kg, route intramuscular; conditions: in vivo, im
[17] = Cmax in Macaca mulatta (Rhesus monkey) at 7.5 mg/kg, administered intramuscularly; set-up: dose 7.5 mg/kg, route intramuscular; conditions: in vivo, im
[18] = Mean residence time in Macaca mulatta (Rhesus monkey) at 50 mg/kg, po; set-up: dose 50 mg/kg, route oral; conditions: in vivo
[19] = Elimination half life in Macaca mulatta (Rhesus monkey) at 50 mg/kg, po; set-up: dose 50 mg/kg, route oral; conditions: in vivo, read-out: beta t1/2 (converted)
[20] = Elimination half life in Rattus norvegicus Sprague-Dawley (rat) at 30 mg/kg, administered intramuscularly; set-up: dose 30 mg/kg, route intramuscular; conditions: in vivo, im, read-out: beta t1/2 (converted)
Rattus norvegicus [21] = assay: Dose normalized AUC in Rattus norvegicus Sprague-Dawley (rat) at 30 mg/kg, administered intramuscularly; set-up: dose 30 mg/kg, route intramuscular; conditions: in vivo, im
[22] = Tmax in Rattus norvegicus Sprague-Dawley (rat) at 30 mg/kg, administered intramuscularly; set-up: dose 30 mg/kg, route intramuscular; conditions: in vivo, im
[23] = Cmax in Rattus norvegicus Sprague-Dawley (rat) at 30 mg/kg, administered intramuscularly; set-up: dose 30 mg/kg, route intramuscular; conditions: in vivo, im
Rattus norvegicus [24] = assay: Volume of distribution in Rattus norvegicus Sprague-Dawley (rat) at 17.5 mg/kg, administered intramuscularly; set-up: dose 17.5 mg/kg, route intramuscular; conditions: in vivo, im
[25] = Mean residence time in Rattus norvegicus Sprague-Dawley (rat) at 17.5 mg/kg, administered intramuscularly; set-up: dose 17.5 mg/kg, route intramuscular; conditions: in vivo, im
[26] = Elimination half life in Rattus norvegicus Sprague-Dawley (rat) at 17.5 mg/kg, administered intramuscularly; set-up: dose 17.5 mg/kg, route intramuscular; conditions: in vivo, im, read-out: beta t1/2 (converted)
Rattus norvegicus [27] = assay: Dose normalized AUC in Rattus norvegicus Sprague-Dawley (rat) at 17.5 mg/kg, administered intramuscularly; set-up: dose 17.5 mg/kg, route intramuscular; conditions: in vivo, im
[28] = Tmax in Rattus norvegicus Sprague-Dawley (rat) at 17.5 mg/kg, administered intramuscularly; set-up: dose 17.5 mg/kg, route intramuscular; conditions: in vivo, im
Rattus norvegicus [29] = assay: Volume of distribution in Rattus norvegicus Sprague-Dawley (rat) at 9 mg/kg, administered intramuscularly; set-up: dose 9 mg/kg, route intramuscular; conditions: in vivo, im
[30] = Mean residence time in Rattus norvegicus Sprague-Dawley (rat) at 9 mg/kg, administered intramuscularly; set-up: dose 9 mg/kg, route intramuscular; conditions: in vivo, im
[31] = Elimination half life in Rattus norvegicus Sprague-Dawley (rat) at 9 mg/kg, administered intramuscularly; set-up: dose 9 mg/kg, route intramuscular; conditions: in vivo, im, read-out: beta t1/2 (converted)
Rattus norvegicus [32] = assay: Dose normalized AUC in Rattus norvegicus Sprague-Dawley (rat) at 9 mg/kg, administered intramuscularly; set-up: dose 9 mg/kg, route intramuscular; conditions: in vivo, im
[33] = Tmax in Rattus norvegicus Sprague-Dawley (rat) at 9 mg/kg, administered intramuscularly; set-up: dose 9 mg/kg, route intramuscular; conditions: in vivo, im
[34] = Cmax in Rattus norvegicus Sprague-Dawley (rat) at 9 mg/kg, administered intramuscularly; set-up: dose 9 mg/kg, route intramuscular; conditions: in vivo, im
Rhesus monkey [35] = assay: Dose normalized AUC in Macaca mulatta (Rhesus monkey) at 50 mg/kg, po; set-up: dose 50 mg/kg, route oral; conditions: in vivo
[36] = Tmax in Macaca mulatta (Rhesus monkey) at 50 mg/kg, po; set-up: dose 50 mg/kg, route oral; conditions: in vivo
[37] = Cmax in Macaca mulatta (Rhesus monkey) at 50 mg/kg, po; set-up: dose 50 mg/kg, route oral; conditions: in vivo
Rattus norvegicus [38] = assay: Volume of distribution in Rattus norvegicus Sprague-Dawley (rat) at 9 mg/kg, po; set-up: dose 9 mg/kg, route oral; conditions: in vivo
[39] = Mean residence time in Rattus norvegicus Sprague-Dawley (rat) at 9 mg/kg, po; set-up: dose 9 mg/kg, route oral; conditions: in vivo
[40] = Elimination half life in Rattus norvegicus Sprague-Dawley (rat) at 9 mg/kg, po; set-up: dose 9 mg/kg, route oral; conditions: in vivo, read-out: beta t1/2 (converted)
Rattus norvegicus [41] = assay: Dose normalized AUC in Rattus norvegicus Sprague-Dawley (rat) at 9 mg/kg, po; set-up: dose 9 mg/kg, route oral; conditions: in vivo
[42] = Tmax in Rattus norvegicus Sprague-Dawley (rat) at 9 mg/kg, po; set-up: dose 9 mg/kg, route oral; conditions: in vivo
[43] = Cmax in Rattus norvegicus Sprague-Dawley (rat) at 9 mg/kg, po; set-up: dose 9 mg/kg, route oral; conditions: in vivo
[44] = Volume of distribution in Rattus norvegicus Sprague-Dawley (rat) at 2 mg/kg, iv; set-up: dose 2 mg/kg, route intravenous; conditions: in vivo
[45] = Mean residence time in Rattus norvegicus Sprague-Dawley (rat) at 2 mg/kg, iv; set-up: dose 2 mg/kg, route intravenous; conditions: in vivo
[46] = Elimination half life in Rattus norvegicus Sprague-Dawley (rat) at 2 mg/kg, iv; set-up: dose 2 mg/kg, route intravenous; conditions: in vivo, read-out: beta t1/2 (converted)
Rattus norvegicus [47] = assay: Volume of distribution in Rattus norvegicus Sprague-Dawley (rat) at 30 mg/kg, po; set-up: dose 30 mg/kg, route oral; conditions: in vivo
[48] = Elimination half life in Rattus norvegicus Sprague-Dawley (rat) at 30 mg/kg, po; set-up: dose 30 mg/kg, route oral; conditions: in vivo, read-out: beta t1/2 (converted)
[49] = Mean residence time in Rattus norvegicus Sprague-Dawley (rat) at 30 mg/kg, po; set-up: dose 30 mg/kg, route oral; conditions: in vivo
Rattus norvegicus [50] = assay: Dose normalized AUC in Rattus norvegicus Sprague-Dawley (rat) at 30 mg/kg, po; set-up: dose 30 mg/kg, route oral; conditions: in vivo
[51] = Tmax in Rattus norvegicus Sprague-Dawley (rat) at 30 mg/kg, po; set-up: dose 30 mg/kg, route oral; conditions: in vivo
Rattus norvegicus [52] = assay: Volume of distribution in Rattus norvegicus Sprague-Dawley (rat) at 17.5 mg/kg, po; set-up: dose 17.5 mg/kg, route oral; conditions: in vivo
[53] = Cmax in Rattus norvegicus Sprague-Dawley (rat) at 30 mg/kg, po; set-up: dose 30 mg/kg, route oral; conditions: in vivo
[54] = Elimination half life in Rattus norvegicus Sprague-Dawley (rat) at 17.5 mg/kg, po; set-up: dose 17.5 mg/kg, route oral; conditions: in vivo, read-out: beta t1/2 (converted)
[55] = Mean residence time in Rattus norvegicus Sprague-Dawley (rat) at 17.5 mg/kg, po; set-up: dose 17.5 mg/kg, route oral; conditions: in vivo
[56] = Tmax in Rattus norvegicus Sprague-Dawley (rat) at 17.5 mg/kg, po; set-up: dose 17.5 mg/kg, route oral; conditions: in vivo
[57] = Cmax in Rattus norvegicus Sprague-Dawley (rat) at 17.5 mg/kg, po; set-up: dose 17.5 mg/kg, route oral; conditions: in vivo
Rattus norvegicus [58] = assay: Volume of distribution in Rattus norvegicus Sprague-Dawley (rat) at 30 mg/kg, administered intramuscularly; set-up: dose 30 mg/kg, route intramuscular; conditions: in vivo, im
[59] = Mean residence time in Rattus norvegicus Sprague-Dawley (rat) at 30 mg/kg, administered intramuscularly; set-up: dose 30 mg/kg, route intramuscular; conditions: in vivo, im

CCO[C@H]1O[C@@H]2O[C@@]3(C)CC[C@H]4[C@H](C)CC[C@@H]([C@H]1C)[C@@]24OO3 [ARTEMOTIL]
clearance [1]: 13.3 mL/min/kg | Vd [2]: 36.2 L/kg | MRT [3]: 47.4 h | half-life [4]: 30.2 h | AUC(0-inf) [5]: 2330 ng·h/mL | Tmax [6]: 6.9 min | Cmax [7]: 49.8 ng/mL | Vd [8]: 8.6 L/kg | MRT [9]: 2.8 h | AUC/dose (Rhesus monkey [10]): 435.8 ng·h/mL | half-life [11]: 2.6 h | Vd (Rhesus monkey [12]): 197.2 L/kg | MRT [13]: 26.7 h | half-life [14]: 19.1 h | AUC/dose (Rhesus monkey [15]): 142.2 ng·h/mL | Tmax [16]: 1.83 h | Cmax [17]: 45.2 ng/mL | MRT [18]: 5.8 h | half-life [19]: 4.4 h | half-life [20]: 25.2 h | AUC/dose (Rattus norvegicus [21]): 19.4 ng·h/mL | Tmax [22]: 0.167 h | Cmax [23]: 27.8 ng/mL | Vd (Rattus norvegicus [24]): 198.7 L/kg | MRT [25]: 33.2 h | half-life [26]: 27.5 h | AUC/dose (Rattus norvegicus [27]): 197.1 ng·h/mL | Tmax [28]: 0.5 h | Vd (Rattus norvegicus [29]): 213.2 L/kg | MRT [30]: 40.8 h | half-life [31]: 28.5 h | AUC/dose (Rattus norvegicus [32]): 187.8 ng·h/mL | Tmax [33]: 0.333 h | Cmax [34]: 39.8 ng/mL | AUC/dose (Rhesus monkey [35]): 0.2 ng·h/mL | Tmax [36]: 0.583 h | Cmax [37]: 1.7 ng/mL | Vd (Rattus norvegicus [38]): 770.8 L/kg | MRT [39]: 6.7 h | half-life [40]: 4.2 h | AUC/dose (Rattus norvegicus [41]): 7.4 ng·h/mL | Tmax [42]: 5 min | Cmax [43]: 10.3 ng/mL | Vd [44]: 9.3 L/kg | MRT [45]: 0.9 h | half-life [46]: 0.85 h | Vd (Rattus norvegicus [47]): 3024.2 L/kg | half-life [48]: 2.8 h | MRT [49]: 3.4 h | AUC/dose (Rattus norvegicus [50]): 1.2 ng·h/mL | Tmax [51]: 5 min | Vd (Rattus norvegicus [52]): 1965.9 L/kg | Cmax [53]: 8.1 ng/mL | half-life [54]: 4.5 h | MRT [55]: 6.9 h | Tmax [56]: 5 min | Cmax [57]: 8.1 ng/mL | Vd (Rattus norvegicus [58]): 1660.6 L/kg | MRT [59]: 44.2 h

— ChEMBL document CHEMBL3045862, “PRE-CLINICAL AND CLINICAL PHARMACOKINETICS OF THE DIASTEREOMERS OF ARTEETHER, A POTENT ANTIMALARIAL” (Med Chem Res, 2004)
